Consider 1 compound from patent US20060287383A1, “Substance exhibiting antidepressant property” (priority 2003, published 2006).

Test [1] has as its system white outbred male rats. Kind of test: Porsolt method of behavioral despair (helplessness). It is filed as in vivo. Conditions: for Time of immobility: 10 minutes observation. From the text:
The Porsolt method of behavioral despair (helplessness) (Porsolt R. D., Anton G., Blavet N. et al. Behavioral despair in rats: a new model sensitive to antidepressant treatment//Europ. J. Pharmacol. 1978—v. 47.—p. 379-391) is the basic model for assessing antidepressants (Andreeva N. I., ? H. ? . the Methodical Guidelines for Studying Antidepressant Activity of Pharmaceuticals,//Guidebook for Experimental (Preclinical) Studies of New Pharmaceuticals of the RF Ministry of Public Health.—ZAO IIA “Remedium”.—2000.—p. 121-125). The studies have been conducted on white outbred male rats having the weight of 230-250 grams. The animals have been put into a water reservoir having 40 cm in diameter and the depth of 60 cm, for the rats cannot either run out of the reservoir or find a support in it. The water temperature has been maintained at the level of 25° C., the experiments have been conducted within the period from 12 A.M. to 4 P.M. After coming into water the animals begin displaying energetic motion activity aimed at finding a way out of the aversive (troublesome) situation, but then they stop their attempts and take a typical position in the water, while being fully immovable or making insignificant motions necessary for keeping their heads over the water surface. The depressive condition intensity rate in this test is the duration of immobility. The immobility condition has been assessed visually, determining its duration within 10 minutes of the observations. Substances having antidepressant activity alleviate this condition by reducing the immobility time.
The studies have been conducted using animals divided into groups. The animals from the experimental groups have received single doses of phenotropyl in the amounts of 25, 50 and 100 mg/kg or the standard amitriptyline medication in the amount of 10 mg/kg (ampoule solution made by Spofa, the Czech Republic) in the volume corresponding to the dose. The animals from the control group have received distilled water in the same dosage. All the substances have been given intragastrically 40 minutes before the an experiment.

Test [2] relates to white outbred male rats. Description: reserpine depression method according to Bernardi. It is filed as in vivo. The following applies: for reduction of the diarrhea intensity / reduction of the intensity of ptosis: versus reserpine; for orientation and motion activity: reserpinized rats; for Diarrhea / Ptosis: 4-point scale; for Number of pulses in activity meter: three minutes, Varimex. From the text: The method of reserpine depression according to Bernardi (Bernardi D., Paglialunga S., Jori A. Peripheral and central components in the hyperthermic effect of desipramine in rezerpinized rats//J. Pharm. Pharmacol., 1968, vol. 20, p. 204-209) is one of the basic models for assessing antidepressants in studies of new pharmaceuticals. The studies have been conducted with white outbred male rats having the weight from 200 to 240 grams. Reserpine has been introduced intraperitoneally, as a single dose of 2.5 mg/kg 2 hours before the introduction of phenotropyl (intraperitoneally, single doses of 25, 50, 100 and 200 mg/kg) and 3 hours before starting the study. The animals from the control group have received intraperitoneally distilled water only in the same volumes as the animals from the experimental groups. The antidepressant activity of phenotropyl has been assessed by its effect on sedation (suppression of the orientation and motion activity), intensity of ptosis and diarrhea, which have been caused by reserpine in the rats.
The orientation and motion activity of the animals has been studied for three minutes in a special activity meter (Varimex). The intensity of ptosis and diarrhea has been assessed on the standard 4-point scale (Mashkovsky M. D., Andreeva N. I., Polezhaeva A. I. Pharmacology of Antidepressants. Moscow, Medicine Publishers, 1983, p. 194-199).

[3] abbreviates: reserpine 2.5 mg/kg + phenotropyl 25 mg/kg intraperitoneally.
The mark [4] stands for this setting: reserpine 2.5 mg/kg + phenotropyl 50 mg/kg intraperitoneally.
The mark [5] stands for this setting: reserpine 2.5 mg/kg + phenotropyl 100 mg/kg intraperitoneally.
Setting [6] is: reserpine 2.5 mg/kg + phenotropyl 200 mg/kg intraperitoneally.

For `NC(=O)CN1CC(c2ccccc2)CC1=O` (stereo not drawn) [Phenotropyl, N-carbamoyl-methyl-4-phenyl-2-pyrrolidone], the “reduction in the time of immobility as compared to the control group” value in the test on white outbred male rats [1] (doses of 50 and 100 mg/kg) came out at 1.6 times. Also, the results for the Time of immobility in the test with white outbred male rats [1] (single dose 25 mg/kg intragastrically 40 minutes before), in the test on white outbred male rats [1] (single dose 50 mg/kg intragastrically 40 minutes before) and in the test with white outbred male rats [1] (single dose 100 mg/kg intragastrically 40 minutes before) were 275.5 ± 84.2 s, 185.7 ± 49.5 s and 158.4 ± 43.2 s, respectively. In addition, the “antidepressant effect in behavioral despair test” value in the test with white outbred male rats [1] (single doses of 50 and 100 mg/kg) is reported as “pronounced antidepressant effect”. The figures for the “reduction of the diarrhea intensity” value in the test on white outbred male rats [2] (phenotropyl 50 mg/kg), with white outbred male rats [2] (phenotropyl 100 mg/kg) and with white outbred male rats [2] (phenotropyl 200 mg/kg) were 1.7 times, 2.4 times and 2.2 times, respectively. The “reduction of the intensity of ptosis” value in the test on white outbred male rats [2] (phenotropyl 50 mg/kg) amounted to 1.4 times; with white outbred male rats [2] (phenotropyl 100 and 200 mg/kg) it was 1.8 times. Also, the “orientation and motion activity” value with white outbred male rats [2] (phenotropyl doses of 25 and 50 mg/kg) was “increased”; in the test on white outbred male rats [2] (phenotropyl doses of 100 and 200 mg/kg), “reliably corresponds to the control level”. Further, the Diarrhea with white outbred male rats [2] (setting [3]) was found to be 2.0 ± 0.1 points; with white outbred male rats [2] (setting [4]), 1.4 ± 0.2 points; in the test with white outbred male rats [2] (setting [5]) it was 1.0 ± 0.2 points; with white outbred male rats [2] (setting [6]) it was 1.1 ± 0.2 points. Also, the Ptosis came to 3.0 ± 0.2 points in the test with white outbred male rats [2] (setting [3]), 2.5 ± 0.2 points in the test with white outbred male rats [2] (setting [4]), 2.0 ± 0.2 points in the test on white outbred male rats [2] (setting [5]) and 2.0 ± 0.1 points in the test on white outbred male rats [2] (setting [6]). Moreover, the “Number of pulses in activity meter” value in the test on white outbred male rats [2] (setting [3]) turned out to be 20.3 ± 1.4; in the test on white outbred male rats [2] (setting [4]), 22.8 ± 1.2; with white outbred male rats [2] (setting [5]) it was 30.6 ± 2.4; with white outbred male rats [2] (setting [6]), 33.9 ± 3.2.
